Assay results from the NIST ThermoML archive (doi:10.1016/j.jct.2011.02.008).
± gives the expanded uncertainty stated by the source.

Test: xn = mol fraction of the nth substance listed
Conditions: Liquid, Vibrating tube method

COC(=O)c1ccccc1 [methyl benzoate] + CCCCCCO
mass density [kg/m3]
Conditions	x1 = 0.1004	x1 = 0.2007	x1 = 0.3007	x1 = 0.4013	x1 = 0.5005	x1 = 0.6009	x1 = 0.7	x1 = 0.8008	x1 = 0.9009
308.15 K, 20000 kPa	–	–	900.3 ± 2.4	926.9 ± 2.4	953.2 ± 2.4	979.8 ± 2.4	1006.1 ± 2.4	1032.8 ± 2.4	1059.4 ± 2.4
308.15 K, 25000 kPa	850.6 ± 2.4	877 ± 2.4	903.4 ± 2.4	930 ± 2.4	956.3 ± 2.4	982.9 ± 2.4	1009.1 ± 2.4	1035.8 ± 2.4	1062.5 ± 2.4
308.15 K, 30000 kPa	853.6 ± 2.4	879.9 ± 2.4	906.4 ± 2.4	933 ± 2.4	959.3 ± 2.4	985.9 ± 2.4	1012.1 ± 2.4	1038.8 ± 2.4	1065.3 ± 2.4
308.15 K, 35000 kPa	856.5 ± 2.4	882.8 ± 2.4	909.3 ± 2.4	935.9 ± 2.4	962.1 ± 2.4	988.8 ± 2.4	1014.9 ± 2.4	1041.7 ± 2.4	1068.2 ± 2.4
308.15 K, 40000 kPa	859.3 ± 2.4	885.7 ± 2.4	912.1 ± 2.4	938.7 ± 2.4	965 ± 2.4	991.6 ± 2.4	1017.7 ± 2.4	1044.5 ± 2.4	1071 ± 2.4
308.15 K, 45000 kPa	862.1 ± 2.4	888.4 ± 2.4	914.9 ± 2.4	941.5 ± 2.4	967.8 ± 2.4	994.3 ± 2.4	1020.5 ± 2.4	1047.2 ± 2.4	1073.7 ± 2.4
308.15 K, 50000 kPa	864.7 ± 2.4	891.1 ± 2.4	917.6 ± 2.4	944.1 ± 2.4	970.5 ± 2.4	997.1 ± 2.4	1023.2 ± 2.4	1049.9 ± 2.4	1076.4 ± 2.4
308.15 K, 55000 kPa	867.4 ± 2.4	893.7 ± 2.4	920.2 ± 2.4	946.8 ± 2.4	973.1 ± 2.4	999.7 ± 2.4	1025.8 ± 2.4	1052.5 ± 2.4	1079.1 ± 2.4
308.15 K, 60000 kPa	869.7 ± 2.4	896.1 ± 2.4	922.6 ± 2.4	949.4 ± 2.4	975.5 ± 2.4	1002.1 ± 2.4	1028.2 ± 2.4	1055 ± 2.4	1081.5 ± 2.4
318.15 K, 100 kPa	826.4 ± 2.4	852.5 ± 2.4	878.7 ± 2.4	905.1 ± 2.4	931.2 ± 2.4	957.7 ± 2.4	983.9 ± 2.4	1010.7 ± 2.4	1037.2 ± 2.4
318.15 K, 1000 kPa	827.1 ± 2.4	853.1 ± 2.4	879.4 ± 2.4	905.8 ± 2.4	931.9 ± 2.4	958.4 ± 2.4	984.6 ± 2.4	1011.3 ± 2.4	1037.8 ± 2.4
318.15 K, 5000 kPa	830.1 ± 2.4	856.2 ± 2.4	882.4 ± 2.4	908.7 ± 2.4	934.8 ± 2.4	961.3 ± 2.4	987.5 ± 2.4	1014.2 ± 2.4	1040.7 ± 2.4
318.15 K, 10000 kPa	833.8 ± 2.4	859.7 ± 2.4	886 ± 2.4	912.3 ± 2.4	938.4 ± 2.4	964.9 ± 2.4	991 ± 2.4	1017.6 ± 2.4	1044.1 ± 2.4
318.15 K, 15000 kPa	837.2 ± 2.4	863.2 ± 2.4	889.4 ± 2.4	915.8 ± 2.4	941.8 ± 2.4	968.2 ± 2.4	994.3 ± 2.4	1021 ± 2.4	1047.4 ± 2.4
318.15 K, 20000 kPa	840.6 ± 2.4	866.6 ± 2.4	892.8 ± 2.4	919.1 ± 2.4	945.2 ± 2.4	971.5 ± 2.4	997.6 ± 2.4	1024.3 ± 2.4	1050.6 ± 2.4
318.15 K, 25000 kPa	843.8 ± 2.4	869.8 ± 2.4	896 ± 2.4	922.3 ± 2.4	948.4 ± 2.4	974.6 ± 2.4	1000.8 ± 2.4	1027.4 ± 2.4	1053.8 ± 2.4
